Measurements from patent US10040791B2, “Isoxazole derivative as mutant isocitrate dehydrogenase 1 inhibitor” (Daiichi Sankyo Company, Limited, priority 2014, dated 2018).
Read-outs that look alike come from different tables or passages of the source.

Legend:
IDH1R132C = IDH1R132C (Homo sapiens (Human), UniProt O75874, R132C); experiment: Inhibitory activity against IDH1R132C enzyme (NADPH detection, WST-8); assay type: biochemical; settings: 10 nM, residual NADPH detected with WST-8, read-out: Test Example 1 IDH1 R132C IC50
Chain of IDH1R132C (O75874 whole entry R132C): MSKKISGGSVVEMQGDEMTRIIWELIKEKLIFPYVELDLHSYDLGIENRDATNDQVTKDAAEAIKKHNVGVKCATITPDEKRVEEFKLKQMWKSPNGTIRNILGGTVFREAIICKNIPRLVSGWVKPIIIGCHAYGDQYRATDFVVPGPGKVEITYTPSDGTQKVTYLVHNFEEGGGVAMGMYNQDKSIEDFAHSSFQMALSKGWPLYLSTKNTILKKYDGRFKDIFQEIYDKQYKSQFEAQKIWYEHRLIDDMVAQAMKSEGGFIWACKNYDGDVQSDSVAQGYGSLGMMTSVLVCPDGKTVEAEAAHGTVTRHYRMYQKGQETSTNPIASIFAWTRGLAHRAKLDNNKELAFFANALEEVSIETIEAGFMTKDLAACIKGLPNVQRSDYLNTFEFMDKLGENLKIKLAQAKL

[1] = system: HT-1080 cells expressing IDH1R132C; experiment: 2-HG production inhibitory activity using HT1080 cell; assay type: cell-based, human; settings: Homo sapiens
Procedure: Then, 100 μL of growth medium B was added to each well, further 25 μL of a solution of each compound diluted to a predetermined concentration with growth medium B was added to each well, and the cells were incubated at 37° C. for 2 days under 5% CO2. […] Then, 150 μL of ultrapure water was further added to each well, and the mixture was stirred by pipetting and stored at −20° C.
The preserved solutions were thawed at room temperature.

[2] = system: HT1080 xenografted mice (IDH1R132C); experiment: 2-HG production inhibitory activity using HT1080 xenografted mice; assay type: in vivo, mouse; settings: for response vs control in vivo at 75 mg/kg: Mus musculus, HT-1080, po, 6 h, read-out: Test Example 5 Ratio (%)
Procedure: HT1080 xenografted mice having successfully engrafted tumors were given by oral gavage each compound at 75 mg/kg a total of three times twice a day. The compound was suspended in a vehicle solution at 7.5 mg/mL using a homogenizer. Then, the suspension was stored at −20° C., thawed immediately before the administration, and given to mice. A negative control group for the test was given a vehicle by oral gavage. The body weights of the mice were measured using an automatic balance for small animals. The dosing solution was administered at a dose of 10 mL/kg body weight.
6 hours after the final administration, each mouse was euthanized with carbon dioxide. A portion of a tumor was collected, and its weight was measured using an electronic balance. Then, the tumor was frozen on dry ice. To the frozen tumor, methanol was added in an amount of 14 times the tumor weight. The resulting tumor was homogenized with Beads shocker (Yasui Kikai Corp.) and then incubated for 15 minutes in a freezer at −20° C. After centrifugation at 15000 rpm at 4° C. for 15 minutes using a high-speed refrigerated microcentrifuge, 250 μL of methanol and 400 μL of ultrapure water were added to 150 μL of the obtained supernatant. The prepared samples were subjected to 2-HG measurement.

[3] = HT-1080, 2-HG production, HT1080 cells, read-out: Test Example 3 IC50
[4] = 2-HG production, HT1080 xenografted mice

Row | SMILES | IC50 (IDH1R132C) | IC50 [1, 3] | response vs control in vivo at 75 mg/kg [2, 4] | IC50 ([1]; HT-1080, read-out: Test Example 3 IC50 (nM)) | response vs control in vivo at 75 mg/kg [2] | Test Example 5 Ratio (%) [2, 4]
1 | Cc1cn(C(=O)c2c(-c3c(Cl)cc(F)cc3Cl)noc2C(C)(C)F)c2cccc(/C=C/C(=O)O)c12 [Example 49, (2E)-3-(1-{[3-(2,6-Dichloro-4-fluorophenyl)-5-(2-fluoropropan-2-yl)-1,2-oxazol-4-yl]carbonyl}-3-methyl-1H-indol-4-yl)prop-2-enoic acid] | 79 nM | 119 nM | 44% |  |  | 
2 | Cc1cn(C(=O)c2c(-c3c(Cl)cc(Cl)cc3Cl)noc2C(C)(F)F)c2cccc(/C=C/C(=O)O)c12 [Example 51, (2E)-3-(1-{[5-(1,1-Difluoroethyl)-3-(2,4,6-trichlorophenyl)-1,2-oxazol-4-yl]carbonyl}-3-methyl-1H-indol-4-yl)prop-2-enoic acid] | 115 nM |  |  | 83 nM | 52% | 
3 | Cc1cc(C)c(-c2noc(C(C)(C)F)c2C(=O)n2cc(C)c3c(/C=C/C(=O)O)cccc32)c(C)c1 [Example 60, (2E)-3-(1-{[5-(2-Fluoropropan-2-yl)-3-(2,4,6-trimethylphenyl)-1,2-oxazol-4-yl]carbonyl}-3-methyl-1H-indol-4-yl)prop-2-enoic acid] | 116 nM | 92 nM | 9% |  |  | 
4 | Cc1cn(C(=O)c2c(-c3ccc(Cl)cc3Cl)noc2C(C)(C)F)c2cccc(/C=C/C(=O)O)c12 [Example 62, (2E)-3-(1-{[3-(2,4-Dichlorophenyl)-5-(2-fluoropropan-2-yl)-1,2-oxazol-4-yl]carbonyl}-3-methyl-1H-indol-4-yl)prop-2-enoic acid] | 155 nM | 69 nM |  |  |  | 10%
5 | Cc1cn(C(=O)c2c(-c3cc(F)c(Cl)cc3Cl)noc2C(C)(C)F)c2cccc(/C=C/C(=O)O)c12 [Example 63, (2E)-3-(1-{[3-(2,4-Dichloro-5-fluorophenyl)-5-(2-fluoropropan-2-yl)-1,2-oxazol-4-yl]carbonyl}-3-methyl-1H-indol-4-yl)prop-2-enoic acid] | 145 nM | 193 nM | 31% |  |  | 
6 | CC(C)(F)c1onc(-c2c(Cl)cc(Cl)cc2Cl)c1C(=O)n1cc(Cl)c2c(/C=C/C(=O)O)cccc21 [Example 66, (2E)-3-(3-Chloro-1-{[5-(2-fluoropropan-2-yl)-3-(2,4,6-trichlorophenyl)-1,2-oxazol-4-yl]carbonyl}-1H-indol-4-yl)prop-2-enoic acid] | 122 nM | 59 nM | 49% |  |  | 
7 | CC(C)(F)c1onc(-c2c(Cl)cc(Cl)cc2Cl)c1C(=O)n1cc2c3c(c(F)ccc31)/C(=C/C(=O)O)CC2 [Example 67, (2E)-[6-Fluoro-1-{[5-(2-fluoropropan-2-yl)-3-(2,4,6-trichlorophenyl)-1,2-oxazol-4-yl]carbonyl}-3,4-dihydrobenzo[cd]indol-5(1H)-ylidene]ethanoic acid] | 154 nM | 95 nM | 27% |  |  | 
8 | Cc1cn(C(=O)c2c(-c3c(Cl)cc(Br)cc3Cl)noc2C(C)(C)F)c2cccc(/C=C/C(=O)O)c12 [Example 68, (2E)-3-(1-{[3-(4-Bromo-2,6-dichlorophenyl)-5-(2-fluoropropan-2-yl)-1,2-oxazol-4-yl]carbonyl}-3-methyl-1H-indol-4-yl)prop-2-enoic acid] | 125 nM | 32 nM | 47% |  |  | 
9 | Cc1cn(C(=O)c2c(-c3c(Cl)cc(C4CC4)cc3Cl)noc2C(C)(C)F)c2cccc(/C=C/C(=O)O)c12 [Example 70, (2E)-3-(1-{[3-(2,6-Dichloro-4-cyclopropylphenyl)-5-(2-fluoropropan-2-yl)-1,2-oxazol-4-yl]carbonyl}-3-methyl-1H-indol-4-yl)prop-2-enoic acid] | 153 nM | 71 nM | 41% |  |  | 
10 | CC(C)(C)c1onc(-c2c(Cl)cc(Cl)cc2Cl)c1C(=O)n1cc(C(F)F)c2c(/C=C/C(=O)O)cccc21 [Example 72, (2E)-3-(1-{[5-(tert-Butyl)-3-(2,4,6-trichlorophenyl)-1,2-oxazol-4-yl]carbonyl}-3-(difluoromethyl)-1H-indol-4-yl)prop-2-enoic acid] | 201 nM | 59 nM | 46% |  |  | 

The next lines start with results.

Row | IC50 (IDH1R132C) | IC50 [1, 3] | SMILES | response vs control in vivo at 75 mg/kg [2, 4] | IC50 ([1]; HT-1080, read-out: Test Example 3 IC50 (nM)) | response vs control in vivo at 75 mg/kg [2] | Test Example 5 Ratio (%) [2, 4]
11 | 104 nM | 173 nM | Cc1cn(C(=O)c2c(-c3c(Cl)cc(Cl)cc3Cl)noc2C(C)(C)F)c2c(F)ccc(/C=C/C(=O)O)c12 [Example 50, (2E)-3-(7-Fluoro-1-{[5-(2-fluoropropan-2-yl)-3-(2,4,6-trichlorophenyl)-1,2-oxazol-4-yl]carbonyl}-3-methyl-1H-indol-4-yl)prop-2-enoic acid] | 84% |  |  | 
12 | 136 nM | 263 nM | Cc1cn(C(=O)c2c(-c3c(F)cccc3Cl)noc2C(C)(C)F)c2cccc(/C=C/C(=O)O)c12 [Example 52, (2E)-3-(1-{[3-(2-Chloro-6-fluorophenyl)-5-(2-fluoropropan-2-yl)-1,2-oxazol-4-yl]carbonyl}-3-methyl-1H-indol-4-yl)prop-2-enoic acid] | 71% |  |  | 
13 | 163 nM | 146 nM | Cc1cn(C(=O)c2c(-c3c(Cl)cccc3Cl)noc2C(C)(C)F)c2cccc(/C=C/C(=O)O)c12 [Example 53, (2E)-3-(1-{[3-(2,6-Dichlorophenyl)-5-(2-fluoropropan-2-yl)-1,2-oxazol-4-yl]carbonyl}-3-methyl-1H-indol-4-yl)prop-2-enoic acid] | 60% |  |  | 
14 | 109 nM | 90 nM | Cc1cn(C(=O)c2c(-c3c(F)cc(Cl)cc3F)noc2C(C)(C)F)c2cccc(/C=C/C(=O)O)c12 [Example 54, (2E)-3-(1-{[3-(4-Chloro-2,6-difluorophenyl)-5-(2-fluoropropan-2-yl)-1,2-oxazol-4-yl]carbonyl}-3-methyl-1H-indol-4-yl)prop-2-enoic acid] |  |  |  | 16%
15 | 125 nM | 62 nM | Cc1cc(Cl)cc(C)c1-c1noc(C(C)(C)F)c1C(=O)n1cc(C)c2c(/C=C/C(=O)O)cccc21 [Example 55, (2E)-3-(1-{[3-(4-Chloro-2,6-dimethylphenyl)-5-(2-fluoropropan-2-yl)-1,2-oxazol-4-yl]carbonyl}-3-methyl-1H-indol-4-yl)prop-2-enoic acid] | 15% |  |  | 
16 | 107 nM | 52 nM | Cc1cc(Cl)c(-c2noc(C(C)(C)F)c2C(=O)n2cc(C)c3c(/C=C/C(=O)O)cccc32)c(Cl)c1 [Example 56, (2E)-3-(1-{[3-(2,6-Dichloro-4-methylphenyl)-5-(2-fluoropropan-2-yl)-1,2-oxazol-4-yl]carbonyl}-3-methyl-1H-indol-4-yl)prop-2-enoic acid] | 28% |  |  | 
17 | 98 nM | 26 nM | COC1(c2onc(-c3c(Cl)cc(Cl)cc3Cl)c2C(=O)n2cc(C)c3c(/C=C/C(=O)O)cccc32)CC1 [Example 57, (2E)-3-(1-{[5-(1-Methoxycyclopropyl)-3-(2,4,6-trichlorophenyl)-1,2-oxazol-4-yl]carbonyl}-3-methyl-1H-indol-4-yl)prop-2-enoic acid] | 12% |  |  | 
18 | 117 nM | 56 nM | Cc1cc(Cl)cc(Cl)c1-c1noc(C(C)(C)F)c1C(=O)n1cc(C)c2c(/C=C/C(=O)O)cccc21 [Example 59, (2E)-3-(1-{[3-(2,4-Dichloro-6-methylphenyl)-5-(2-fluoropropan-2-yl)-1,2-oxazol-4-yl]carbonyl}-3-methyl-1H-indol-4-yl)prop-2-enoic acid] | 10% |  |  | 
19 | 198 nM | 93 nM | CCc1cn(C(=O)c2c(-c3c(Cl)cc(Cl)cc3Cl)noc2C(C)(C)F)c2cccc(/C=C/C(=O)O)c12 [Example 65, (2E)-3-(3-Ethyl-1-{[5-(2-fluoropropan-2-yl)-3-(2,4,6-trichlorophenyl)-1,2-oxazol-4-yl]carbonyl}-1H-indol-4-yl)prop-2-enoic acid] | 65% |  |  | 
20 | 168 nM | 197 nM | CC(C)(F)c1onc(-c2ccc(Cl)cc2Cl)c1C(=O)n1cc2c3c(cccc31)/C(=C/C(=O)O)CC2 [Example 69, (2E)-[1-{[3-(2,4-Dichlorophenyl)-5-(2-fluoropropan-2-yl)-1,2-oxazol-4-yl]carbonyl}-3,4-dihydrobenzo[cd]indol-5(1H)-ylidene]ethanoic acid] | 20% |  |  | 
